We go through 1 compound from PMC10819746, “Investigating Novel IspE Inhibitors of the MEP Pathway in Mycobacterium” (Microorganisms, 2023).

One may read the IC50 as the concentration needed to halve the response being measured. A high value points to weaker potency in that assay.

For this assay, the target named is T1, IspE (4-diphosphocytidyl-2-c-methyl-d-erythritol kinase; Rv1011) (Mycobacterium tuberculosis, UniProt P9WKG7).
T1 sequence (P9WKG7 2-318): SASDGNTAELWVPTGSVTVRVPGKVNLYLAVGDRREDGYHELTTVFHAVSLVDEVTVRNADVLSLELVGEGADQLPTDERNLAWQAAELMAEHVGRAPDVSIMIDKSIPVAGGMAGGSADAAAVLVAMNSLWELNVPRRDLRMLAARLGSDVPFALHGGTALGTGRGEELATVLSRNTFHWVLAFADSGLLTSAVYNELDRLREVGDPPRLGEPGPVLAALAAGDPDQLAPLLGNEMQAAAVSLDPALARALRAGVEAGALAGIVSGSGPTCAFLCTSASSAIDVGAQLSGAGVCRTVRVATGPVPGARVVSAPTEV
Put plainly: ADP Quest HS coupled fluorescent kinase assay (resorufin) with Rv1011, ATP and CDP-ME. Type of assay: biochemical.

In turn, `Cc1ccc([C@H]2c3c([nH]n(-c4ccccc4)c3=O)NC3=C[C@H](C)CC(=O)[C@H]32)cc1` [A1] showed a half-inhibitory concentration (IC50) of 15.6 µM.
